Among the test systems are IGROV1 ovarian; SK-MEL-28 melanoma; NCI-H226 lung; SN12C renal; HOP-92 NSCLC; SF-295 CNS; NCI/ADR-RES ovarian; UACC-62 melanoma; MDA-MB-231 breast; SK-MEL-5 melanoma.
What all share (experiment): inhibition of tumour cell growth, NCI panel, 48 h

This note sets out measurements from PubChem BioAssay (NCI).

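Each compound was tested at five concentrations against cells in 96-well plates for 48 hours. Here, GI50 denotes the concentration required for 50% inhibition of growth. TGI: total growth inhibition.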

In the case of `O=C(N[C@H]1CCC[C@H]1C(=O)Nc1ccc(C(F)(F)F)cc1)OCc1ccccc1`, the TGI with IGROV1 ovarian, in the test on SK-MEL-28 melanoma, in the test with NCI-H226 lung, in the test on SN12C renal, in the test on HOP-92 NSCLC and with SF-295 CNS was over 100 µM throughout. For the same compound, the TGI with NCI/ADR-RES ovarian, with UACC-62 melanoma, with MDA-MB-231 breast and with SK-MEL-5 melanoma was over 100 µM in each case.

For the compound `Cc1cc2oc3c(ccc(=O)n3C)c(=O)c2c(C)c1Cl`, the TGI was over 100 µM in the test on IGROV1 ovarian; 73.1 µM in the test with SK-MEL-28 melanoma; over 100 µM in the test with NCI-H226 lung; over 100 µM in the test on SN12C renal; over 100 µM in the test with HOP-92 NSCLC; over 100 µM with SF-295 CNS. Moreover, the TGI in the test on NCI/ADR-RES ovarian, in the test on UACC-62 melanoma, with MDA-MB-231 breast and in the test on SK-MEL-5 melanoma was over 100 µM each time.

On to `O=c1c2cc(I)ccc2nc(SCc2nnco2)n1Cc1ccccc1`, for which the TGI in the test with IGROV1 ovarian, in the test on SK-MEL-28 melanoma, in the test on NCI-H226 lung, in the test with SN12C renal, with HOP-92 NSCLC and in the test on SF-295 CNS was over 100 µM throughout. For the same compound, the TGI with NCI/ADR-RES ovarian, in the test on UACC-62 melanoma, in the test with MDA-MB-231 breast and with SK-MEL-5 melanoma was over 100 µM throughout.

As to `CCn1c(=O)c2c3ccc(OC)cc3[nH]c2c2ccc(OC)cc21`, the TGI with IGROV1 ovarian, in the test with SK-MEL-28 melanoma, in the test on NCI-H226 lung, in the test with SN12C renal, with HOP-92 NSCLC and in the test on SF-295 CNS was over 100 µM throughout. The TGI in the test on NCI/ADR-RES ovarian, in the test with UACC-62 melanoma, in the test on MDA-MB-231 breast and in the test with SK-MEL-5 melanoma was over 100 µM throughout.

As to `CC(=O)c1[nH]c(Nc2ccc(C)cc2)c(C(=S)Nc2ccccc2)c1N`, the TGI in the test on IGROV1 ovarian came to 35.7 µM; in the test with SK-MEL-28 melanoma, 45.3 µM; in the test with NCI-H226 lung it was 32.4 µM; in the test on SN12C renal it was 35 µM; in the test with HOP-92 NSCLC, 35.9 µM; in the test with SF-295 CNS, 39.7 µM. Further, the TGI came to 89.4 µM with NCI/ADR-RES ovarian, 31.7 µM in the test on UACC-62 melanoma, 35.7 µM in the test with MDA-MB-231 breast and 31 µM in the test with SK-MEL-5 melanoma.

Turning to `CC1=CC(=O)/C(=C/n2c(=S)[nH]c3cc(C)ccc32)C(=O)O1`, the TGI in the test with IGROV1 ovarian, in the test with SK-MEL-28 melanoma, in the test with NCI-H226 lung, in the test on SN12C renal, with HOP-92 NSCLC and in the test with SF-295 CNS was over 100 µM in each case. The TGI with NCI/ADR-RES ovarian, in the test with UACC-62 melanoma, with MDA-MB-231 breast and in the test on SK-MEL-5 melanoma was over 100 µM in each case.

Consider `Cc1ccc(N=C2SC(=NN(C)C)SC2=Nc2ccc(C)cc2)cc1`, for which the TGI in the test on IGROV1 ovarian, in the test on SK-MEL-28 melanoma, in the test with NCI-H226 lung, with SN12C renal, in the test on HOP-92 NSCLC and in the test with SF-295 CNS was over 100 µM each time. For the same compound, the TGI with NCI/ADR-RES ovarian, in the test on UACC-62 melanoma, with MDA-MB-231 breast and with SK-MEL-5 melanoma was over 100 µM each time.

On to `COc1ccc(N2N=NN(C(C)C)/C2=C(/Cl)c2nnnn2-c2ccc(OC)cc2)cc1`, for which the TGI came out at 28.7 µM in the test on IGROV1 ovarian; 29.7 µM in the test on SK-MEL-28 melanoma; 42.2 µM with NCI-H226 lung; 28.2 µM with SN12C renal; 6.19 µM in the test with HOP-92 NSCLC; 30.4 µM in the test with SF-295 CNS. The TGI in the test on NCI/ADR-RES ovarian amounted to 61.2 µM; in the test on UACC-62 melanoma, 28.7 µM; in the test on MDA-MB-231 breast it was 22.6 µM; in the test with SK-MEL-5 melanoma it was 28.7 µM.

In the case of `COc1cc(/C(=C2/O[C@@H]([C@H]3COC(C)(C)O3)[C@H]3OC(C)(C)O[C@@H]23)c2ccc3c(c2)OCO3)cc(OC)c1OC`, the GI50 with IGROV1 ovarian was over 25 µM; with SK-MEL-28 melanoma it was 16.1 µM; in the test on NCI-H226 lung, over 25 µM; in the test on SN12C renal, 18.8 µM; in the test on HOP-92 NSCLC, over 25 µM; with SF-295 CNS, over 25 µM. Further, the GI50 with NCI/ADR-RES ovarian is over 25 µM; in the test on UACC-62 melanoma it was over 25 µM; in the test with MDA-MB-231 breast, over 25 µM; with SK-MEL-5 melanoma, 13 µM. Besides, the TGI with IGROV1 ovarian, with SK-MEL-28 melanoma, in the test with NCI-H226 lung, in the test on SN12C renal, in the test on HOP-92 NSCLC and with SF-295 CNS was over 25 µM in each case. Also, the TGI with NCI/ADR-RES ovarian, with UACC-62 melanoma, in the test on MDA-MB-231 breast and with SK-MEL-5 melanoma was over 25 µM throughout.

On to `O=C(CSCC(=O)N/N=C\c1ccccc1F)N/N=C\c1ccccc1F`, for which the TGI with IGROV1 ovarian, in the test with SK-MEL-28 melanoma, in the test on NCI-H226 lung, in the test on SN12C renal, in the test with HOP-92 NSCLC and in the test on SF-295 CNS was over 100 µM in each case. The TGI with NCI/ADR-RES ovarian is 63.1 µM; in the test on UACC-62 melanoma, over 100 µM; in the test with MDA-MB-231 breast it was over 100 µM; with SK-MEL-5 melanoma it was over 100 µM.
